Source: the supplement of paper PMC10307832

Columns and labels:
Assay in all cases: relative viability (nuclei count vs DMSO), 5 days (fraction); higher = more cells survive
BX 795 + Palbociclib = compound: O=C(NCCCNc1nc(Nc2cccc(NC(=O)N3CCCC3)c2)ncc1I)c1cccs1 [BX 795] + CC(=O)c1c(C)c2cnc(Nc3ccc(N4CCNCC4)cn3)nc2n(C2CCCC2)c1=O [Palbociclib] (partner 0.5 µM)
Procedure, shortened: (§1)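 Nuclei were stained with Hoechst during a one-step fixation (final 0.05% Triton X-100, 1% formaldehyde, 1 ug/ml Hoechst) carried out 5 days after dosing, then counted on 4× images. The cells, lung cancer lines in 1536-well plates, had been dosed by pin tool the day after seeding with one drug alone or a fixed anchor-drug dose plus five library-drug doses (not always all listed) in √10 steps. Relative viability is the nuclei count in treated wells divided by that in vehicle wells, and each value is the median of duplicate plates.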

BX 795 + Bortezomib = compound: O=C(NCCCNc1nc(Nc2cccc(NC(=O)N3CCCC3)c2)ncc1I)c1cccs1 [BX 795] + CC(C)C[C@H](NC(=O)[C@H](Cc1ccccc1)NC(=O)c1cnccn1)B(O)O [Bortezomib] (partner 0.002 µM)
Procedure, shortened: as §1

BX 795 + Alpelisib = compound: O=C(NCCCNc1nc(Nc2cccc(NC(=O)N3CCCC3)c2)ncc1I)c1cccs1 [BX 795] + Cc1nc(NC(=O)N2CCC[C@H]2C(N)=O)sc1-c1ccnc(C(C)(C)C(F)(F)F)c1 [Alpelisib] (partner 2 µM)
Procedure, shortened: as §1

BX 795 + Phenformin = compound: O=C(NCCCNc1nc(Nc2cccc(NC(=O)N3CCCC3)c2)ncc1I)c1cccs1 [BX 795] + N=C(N)NC(=N)NCCc1ccccc1 [Phenformin] (partner 250 µM)
Procedure, shortened: as §1

BX 795 + Pemetrexed = compound: O=C(NCCCNc1nc(Nc2cccc(NC(=O)N3CCCC3)c2)ncc1I)c1cccs1 [BX 795] + Nc1nc2[nH]cc(CCc3ccc(C(=O)N[C@@H](CCC(=O)O)C(=O)O)cc3)c2c(=O)[nH]1 [Pemetrexed] (partner 0.2 µM)
Procedure, shortened: as §1

| Cell Line | relative viability (BX 795 + Palbociclib; first compound 0.04 µM) | relative viability (BX 795 + Palbociclib; first compound 0.1265 µM) | relative viability (BX 795 + Palbociclib; first compound 0.4 µM) | relative viability (BX 795 + Palbociclib; first compound 1.265 µM) | relative viability (BX 795 + Bortezomib; first compound 0.04 µM) | relative viability (BX 795 + Bortezomib; first compound 0.1265 µM) | relative viability (BX 795 + Bortezomib; first compound 0.4 µM) | relative viability (BX 795 + Bortezomib; first compound 1.265 µM) | relative viability (BX 795 + Alpelisib; first compound 0.04 µM) | relative viability (BX 795 + Alpelisib; first compound 0.1265 µM) | relative viability (BX 795 + Alpelisib; first compound 0.4 µM) | relative viability (BX 795 + Alpelisib; first compound 1.265 µM) | relative viability (BX 795 + Phenformin; first compound 0.04 µM) | relative viability (BX 795 + Phenformin; first compound 0.1265 µM) | relative viability (BX 795 + Phenformin; first compound 0.4 µM) | relative viability (BX 795 + Phenformin; first compound 1.265 µM) | relative viability (BX 795 + Pemetrexed; first compound 0.04 µM) | relative viability (BX 795 + Pemetrexed; first compound 0.1265 µM) | relative viability (BX 795 + Pemetrexed; first compound 0.4 µM) | relative viability (BX 795 + Pemetrexed; first compound 1.265 µM) |
| --- | --- | --- | --- | --- | --- | --- | --- | --- | --- | --- | --- | --- | --- | --- | --- | --- | --- | --- | --- | --- |
| EKVX | 0.51 | 0.483 | 0.381 | 0.365 | 1.15 | 1.09 | 0.99 | 0.886 | 0.841 | 0.933 | 0.808 | 0.837 | 0.225 | 0.247 | 0.21 | 0.217 | 0.309 | 0.379 | 0.228 | 0.386 |
| EMC-BAC-2 | 0.536 | 0.52 | 0.512 | 0.432 | 1.08 | 1.08 | 1.13 | 1.06 | 0.766 | 0.795 | 0.715 | 0.464 | 0.473 | 0.489 | 0.469 | 0.301 | 0.383 | 0.446 | 0.428 | 0.454 |
| EPLC-272H | 0.352 | 0.419 | 0.317 | 0.387 | 1.02 | – | 0.857 | 0.824 | 1 | – | 0.905 | 0.93 | 0.364 | 0.216 | 0.284 | 0.272 | 0.272 | 0.294 | 0.123 | 0.21 |
| H3255 | 0.323 | 0.276 | 0.314 | 0.316 | 0.731 | 0.816 | 1.11 | 0.66 | 0.873 | 0.845 | 0.759 | 0.584 | 0.371 | 0.354 | 0.406 | 0.363 | 0.615 | 0.531 | 0.584 | 0.509 |
| HARA | 0.237 | 0.183 | 0.201 | 0.208 | 1.12 | 1.03 | 1.1 | 1.06 | 0.752 | 0.82 | 1.2 | 0.605 | 0.446 | 0.424 | 0.506 | 0.447 | 0.21 | 0.227 | 0.195 | 0.227 |
| HCC-15 | 0.766 | 0.712 | 0.663 | 0.616 | 0.969 | 1.02 | 0.99 | 0.778 | 0.865 | 0.877 | 0.959 | 0.665 | 0.423 | 0.485 | 0.482 | 0.283 | 0.199 | 0.202 | 0.215 | 0.194 |
| HCC-44 | 0.997 | 0.968 | 1.05 | 1.07 | 0.818 | 0.929 | 1.1 | 0.772 | 0.742 | 0.865 | 0.85 | 0.543 | 0.157 | 0.162 | 0.222 | 0.153 | 0.537 | 0.614 | 0.449 | 0.666 |
| HCC-78 | 0.56 | 0.437 | 0.49 | 0.433 | 0.735 | 0.487 | 0.438 | 0.41 | 0.406 | 0.337 | 0.39 | 0.303 | 0.853 | 0.656 | 0.817 | 0.708 | 0.913 | 0.888 | 0.873 | 0.883 |
